Here are results for 2 compounds from patent US11099188B2, “ROS kinase in lung cancer” (CELL SIGNALING TECHNOLOGY, INC., priority 2006, dated 2021).

The test system of test [1] is BaF3 cells transduced with neo-myc. The experiment in a line: MTS assay, growth of BaF3 cells transduced with neo-myc (negative control). The format is cell-based. The settings on record: Mus musculus, 72 hours, second experiment only. On the procedure:
(§1) BaF3 and Karpas 299 cells were obtained from DSMZ (Deutsche Sammlung von Mikroorganismen and Zellkulturen GmbH, Germany). BaF3 cells, which need interleukin-3 to survive, were maintained at 37° C. in RPMI-1640 medium (Invitrogen) with 10% fetal bovine serum (FBS) (Sigma) and 1.0 ng/ml murine IL-3 (R&D Systems). Karpas 299 cells (a lymphoma cell line) were grown in RPMI-1640 with 10% FBS.
(§2) A MTS assay was performed using the CellTiter 96 Aqueous One Solution Reagent (Promega, Catalog No G3582). […] After 72 hours, 20 μl of the CellTiter 96 Aqueous One Solution Reagent was added into each well of a 96 well assay plate (flat bottom), and then 100 μl of cells grown with or without treatment. Media-only wells were used as controls. The 96 well plate was incubated for 1-4 hours at 37° C., and then viable cells were counted by reading the absorbance at 490 nm using a 96 well plate reader.
On the technique in general: Formazan colour is commonly taken as a measure of viable cells.

Test [2] concerns BaF3 expressing FIG-ROS(L). In words: MTS assay, growth of BaF3 cells expressing FIG-ROS(L). The format is cell-based. The settings on record: for IC50: Mus musculus, BaF3, 72 h. Here is the method: as §1
(§3) BaF3 cells were transduced with retrovirus encoding FIG-ROS(S), FIG-ROS(L), or FLT-3ITD (the Internal tandem duplication mutation in FLT3 causes AML leukemia), and selected for IL3 independent growth. Karpas 299 cells, which express NPM-ALK, was used as a positive control. Retroviruses were generated as previously described (see PCT Publication No. WO 2010/093928, incorporated by reference).
as §2

In test [3] the test system is BaF3 expressing FIG-ROS(S). In words: MTS assay, growth of BaF3 cells expressing FIG-ROS(S). The format is cell-based. Conditions: for IC50: Mus musculus, BaF3, 72 h. Here is the method:
as §1, §3, §2

In test [4] the test system is BaF3 cells transduced with the FLT-3ITD retrovirus. In words: Western blotting of phosphorylation in BaF3 cells transduced with the FLT-3ITD retrovirus. The format is cell-based. The text has this:
(§4) All antibodies were from Cell Signaling Technology, Inc. (Danvers, Mass.)
(§5) Since ROS, ALK, LTK, InsR, and IGF1R belong to the same family of tyrosine kinases, they may share similar structure in the kinase domain.
(In general: In western blotting, separated proteins are transferred to a membrane and probed.)

The next test has as its system BaF3 expressing FLT3ITD. In words: cells. Conditions: for IC50: Mus musculus, BaF3, 72 h. On the procedure:
as §1, §3, §2

The subject of test [5] is Karpas 299 cells. The experiment in a line: cells. Conditions: for IC50: Homo sapiens, KARPAS-299, 72 h. On the procedure:
as §1, §3, §2

For test [6], the system named is BaF3 cells expressing FIG-ROS(L). The experiment in a line: Flow cytometry, cleaved caspase-3 as apoptosis marker, BaF3 FIG-ROS(L). The settings on record: in the presence of TAE-684, FIG. 19. The format is cell-based. An excerpt:
(§6) The mechanism of death of the BaF3 and Karpas 299 cells was next assessed by measuring the percentage of cleaved-caspase 3 positive cells by flow cytometry assay using cleaved caspase-3 as a marker for apoptosis.

The next test deals with FIG-ROS(L) (Homo sapiens, UniProt P08922). The experiment in a line: Western blotting of phosphorylation in FIG-ROS(L) expressing BaF3 cells. The format is cell-based.
Description: as §4, §5

Another test deals with ALK in Karpas 299 cells. The experiment in a line: Western blotting of phosphorylation in Karpas 299 cells. The format is cell-based. The settings on record: 0, 10, 50, or 100 nM for three hours, FIG. 20.
Description: as §4, §5

Another test deals with T1, FIG-ROS(S) (Homo sapiens, UniProt P08922).
T1 construct: expressed in transfected cells; host or cells: BaF3 cells, retrovirally transduced, selected for IL3-independent growth
The experiment in a line: Western blotting of phosphorylation in FIG-ROS(S) expressing BaF3 cells. The format is cell-based.
Description: as §4, §5

For test [7], the system named is Karpas 299 cells. The experiment in a line: Flow cytometry, cleaved caspase-3 as apoptosis marker, Karpas 299. The format is cell-based. Conditions: in the presence of TAE-684, FIG. 19.
Description: as §6
(Flow cytometry measures light scatter and fluorescence of single cells or particles in a stream.)

Test [8] deals with BaF3 cells expressing FIG-ROS(S). The experiment in a line: Flow cytometry, cleaved caspase-3 as apoptosis marker, BaF3 FIG-ROS(S). Conditions: in the presence of TAE-684, FIG. 19. The format is cell-based.
Description: as §6

Setting [9] is: 72 hours, first of two experiments.
Where [10] appears, read: 72 hours, second of two experiments.
Where [11] appears, read: same concentration of each, 0-1.0 uM, FIG. 21A/21B.
Setting [12] is: 0, 10, 50, or 100 nM for three hours, FIG. 20.
[13] abbreviates: 0, 0.1, 0.3, or 1.0 uM for three hours, FIG. 22.

Each structure is given as a SMILES string.

As a reminder, the IC50 is the concentration needed to halve the response being measured. A lower IC50 goes with inhibition by little substance.

Take `COc1cc(N2CCC(N3CCN(C)CC3)CC2)ccc1Nc1ncc(Cl)c(Nc2ccccc2S(=O)(=O)C(C)C)n1` [TAE-684]: the IC50 in [1] is 1640 nM; in [2] (setting [9]), 1.78 nM; in test [2] (setting [10]), 2.84 nM; in test [3] (setting [9]), 10.2 nM; in test [3] (setting [10]), 15 nM; in the test on BaF3 expressing FLT3ITD (first of two experiments), 419 nM. In addition, the IC50 in the test on BaF3 expressing FLT3ITD (second of two experiments) was 316 nM; with Karpas 299 cells [5] (first of two experiments), 4.85 nM; in the test with Karpas 299 cells [5] (second of two experiments), 4.36 nM. Also, the “cellular growth response in the presence of TAE-684” value in [2] (0-1000 nM, 72 hours, FIG. 18) was “stopped growing”; in [3] (0-1000 nM, 72 hours, FIG. 18), “stopped growing”; with BaF3 expressing FLT3ITD (0-1000 nM, 72 hours, FIG. 18), “not susceptible”; in the test with Karpas 299 cells [5] (0-1000 nM, 72 hours, FIG. 18), “stopped growing”. Further, the “sensitivity of cellular growth, TAE-684 compared with crizotinib” value in test [2] (setting [11]) and in test [3] (setting [11]) was “more sensitive to TAE-684 than to crizotinib” in each case. For the same compound, the “phosphorylation of STAT3, AKT, and ERK, and Shp2” value was “not affected” in [4] (setting [12]), “inhibited” on FIG-ROS(L) (setting [12]) and “inhibited” at FIG-ROS(S) (setting [12]). The “mechanism of death, cleaved-caspase 3 positive cells (apoptosis)” value is recorded as “die by apoptosis” in test [6], “did not die by apoptosis” in the test on Karpas 299 cells [7] and “die by apoptosis” in [8]. The “phosphorylation of FIG-ROS(L)” value at FIG-ROS(L) (setting [12]) is given as “inhibited”. Further, the “ALK and ERK phosphorylation” value in the test with ALK in Karpas 299 cells is given as “inhibited”. Besides, the “phosphorylation of FIG-ROS(S)” value on FIG-ROS(S) (setting [12]) was “inhibited”.

On to `C[C@@H](Oc1cc(-c2cnn(C3CCNCC3)c2)cnc1N)c1c(Cl)ccc(F)c1Cl` [crizotinib], for which the “phosphorylation of STAT3 and ERK” value is given as “not affected” in [4] (setting [13]), “inhibited” on FIG-ROS(L) (setting [13]) and “inhibited” on FIG-ROS(S) (setting [13]). The “phosphorylation of FIG-ROS(L)” value on FIG-ROS(L) (setting [13]) is listed as “inhibited”. In addition, at FIG-ROS(S) (setting [13]), the “phosphorylation of FIG-ROS(S)” value is listed as “inhibited”.
